Results taken from ChEMBL document CHEMBL1146806, “Halothiophene benzimidazoles as P1 surrogates of inhibitors of blood coagulation factor Xa” (Bioorg Med Chem Lett, 2004).

Columns and labels:
[1] = Solubility in pH 7.0 phosphate buffer; format: physicochemical
[2] = Oral bioavailability in dog; format: ADME, organism-based, Canis lupus familiaris; conditions: in vivo
[3] = Oral bioavailability in rat; format: ADME, organism-based; conditions: in vivo
[4] = target: Prothrombin (Homo sapiens, UniProt P00734); assay: Binding affinity against human thrombin.
[5] = target: Serine protease 1 (Homo sapiens, UniProt P07477); assay: Binding affinity of the compoumd against human trypsin was determined
[6] = target: Coagulation factor X (Homo sapiens, UniProt P00742); assay: Binding affinity of the compoumd to human coagulation factor Xa
[7] = target: Trypsin (Homo sapiens, UniProt P07477+P07478+P35030); assay: Binding affinity against human trypsin; format: protein assay

Serine protease 1, sequence (P07477 whole entry): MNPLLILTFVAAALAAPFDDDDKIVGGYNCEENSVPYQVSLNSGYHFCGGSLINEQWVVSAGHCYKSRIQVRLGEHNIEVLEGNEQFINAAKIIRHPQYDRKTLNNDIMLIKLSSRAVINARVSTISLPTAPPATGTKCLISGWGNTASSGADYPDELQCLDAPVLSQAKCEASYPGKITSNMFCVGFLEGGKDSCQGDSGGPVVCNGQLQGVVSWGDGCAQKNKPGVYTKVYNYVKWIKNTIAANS
Coagulation factor X, sequence (P00742 41-179 limits assumed): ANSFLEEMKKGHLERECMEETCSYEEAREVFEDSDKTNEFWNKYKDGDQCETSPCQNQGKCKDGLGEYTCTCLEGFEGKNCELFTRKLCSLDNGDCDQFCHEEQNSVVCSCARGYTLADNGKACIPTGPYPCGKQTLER
Coagulation factor X, sequence (P00742 235-488 limits assumed): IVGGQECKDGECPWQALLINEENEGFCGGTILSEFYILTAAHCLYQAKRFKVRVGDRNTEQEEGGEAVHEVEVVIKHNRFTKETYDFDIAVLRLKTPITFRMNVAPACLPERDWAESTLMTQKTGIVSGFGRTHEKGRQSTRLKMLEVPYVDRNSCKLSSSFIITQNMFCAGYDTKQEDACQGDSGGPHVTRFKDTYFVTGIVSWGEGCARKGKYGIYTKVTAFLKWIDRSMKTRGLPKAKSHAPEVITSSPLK

| SMILES | solubility [1] [mg/mL] | bioavailability [2] [%] | bioavailability [3] [%] | IC50 [4] [µM] | IC50 [5] [µM] | IC50 [6] [µM] | IC50 [7] [µM] |
| --- | --- | --- | --- | --- | --- | --- | --- |
| CCC[C@@H](NC(=O)Nc1ccc(Cl)cc1)C(=O)Nc1ccc(N2CCOCC2=O)cc1 | < 0.01 | < 20 | < 20 | > 10 | > 10 | – | – |
| O=C(CCc1ccc2[nH]c(-c3ccc(Cl)s3)nc2c1)Nc1ccc(-n2ccccc2=O)c(F)c1 | < 0.01 | < 20 | < 20 | > 10 | > 10 | 0.0076 | – |
| Cc1cc(NC(=O)CCc2ccc3[nH]c(-c4ccc(Br)s4)nc3c2)ccc1N1CCOCC1=O | < 0.01 | < 20 | < 20 | > 10 | – | 0.0084 | > 10 |
| Cc1cc(NC(=O)COc2ccc3[nH]c(-c4ccc(Cl)s4)nc3c2)ccc1N1CCOCC1=O | < 0.01 | < 20 | < 20 | > 10 | – | 0.02 | > 10 |
| O=C(COc1ccc2[nH]c(-c3ccc(Cl)s3)nc2c1)Nc1ccc(N2CCOCC2=O)cc1 | < 0.01 | < 20 | < 20 | – | – | 0.15 | – |
| Cc1cc(NC(=O)CCc2ccc3[nH]c(-c4ccc(Cl)s4)nc3c2)ccc1N1CCOCC1=O | < 0.01 | < 20 | < 20 | > 10 | – | 0.0082 | > 10 |
| CC1CC(=O)NN=C1c1ccc2[nH]c(-c3ccc(Br)s3)nc2c1 (centres undefined) | < 0.01 | < 20 | < 20 | > 10 | > 10 | 0.98 | – |
| O=C(Cc1ccc(N2CCOCC2=O)cc1)Nc1ccc2[nH]c(-c3ccc(Cl)s3)nc2c1 | < 0.01 | < 20 | < 20 | > 10 | – | 1.2 | > 10 |
| O=C(Cc1ccc2[nH]c(-c3ccc(Br)s3)nc2c1)NCC1CCN(c2ccncc2)CC1 | < 0.01 | < 20 | < 20 | > 10 | – | 0.0052 | > 10 |
| O=C(Cc1ccc2[nH]c(-c3ccc(Cl)s3)nc2c1)Nc1ccc(N2CCCCC2=O)cc1 | < 0.01 | < 20 | < 20 | > 10 | – | 0.26 | > 10 |
| O=C(Cc1ccc2[nH]c(-c3ccc(Cl)s3)nc2c1)Nc1ccc(N2CCCC2=O)cc1 | < 0.01 | < 20 | < 20 | > 10 | – | 0.53 | > 10 |
| O=C(NCc1ccc2[nH]c(-c3ccc(Cl)s3)nc2c1)c1ccc(N2CCOCC2=O)cc1 | < 0.01 | < 20 | < 20 | > 10 | – | 0.44 | > 10 |
| O=C(CCc1ccc2nc(-c3ccc(Br)s3)[nH]c2c1)NCC1CCN(c2ccncc2)CC1 | < 0.01 | < 20 | < 20 | – | – | 0.058 | – |
| O=C(CNC(=O)Nc1ccc(Cl)cc1)Nc1ccc(N2CCOCC2=O)cc1 | < 0.01 | < 20 | < 20 | > 10 | > 10 | 0.032 | – |
| O=C(CCc1ccc2nc(-c3ccc(Cl)s3)[nH]c2c1)Nc1ccc(N2CCOCC2=O)cc1F | < 0.01 | < 20 | < 20 | > 10 | > 10 | – | – |
| O=C(CCc1ccc2[nH]c(-c3ccc(Cl)s3)nc2c1)Nc1ccc(N2CCOCC2=O)c(Cl)c1 | < 0.01 | < 20 | < 20 | > 10 | > 10 | 0.007 | – |
| O=C(Cc1ccc2[nH]c(-c3ccc(Cl)s3)nc2c1)Nc1ccc(N2CCOCC2=O)cc1 | < 0.01 | < 20 | < 20 | > 10 | – | – | > 10 |
| O=C(Nc1ccc(N2CCOCC2=O)cc1)c1ccc2[nH]c(-c3ccc(Cl)s3)nc2c1 | < 0.01 | < 20 | < 20 | > 10 | – | – | > 10 |
| O=C(CCc1ccc2[nH]c(-c3ccc(Cl)s3)nc2c1)Nc1ccc(N2CCOCC2=O)cc1 | < 0.01 | < 20 | < 20 | – | – | – | – |
| O=C(Cc1ccc2[nH]c(-c3ccc(Cl)s3)nc2c1)NCC1CCN(c2ccncc2)CC1 | < 0.01 | < 20 | < 20 | > 10 | – | 0.014 | > 10 |
| O=C(Cc1ccc2[nH]c(-c3ccc(Cl)s3)nc2c1)NCc1ccc(N2CCOCC2=O)cc1 | < 0.01 | < 20 | < 20 | – | – | 0.17 | – |
| CS(=O)(=O)c1ccccc1-c1ccc(NC(=O)Cc2ccc3[nH]c(-c4ccc(Cl)s4)nc3c2)cc1 | < 0.01 | < 20 | < 20 | > 10 | – | – | > 10 |
| CC1CC(=O)NN=C1c1ccc2[nH]c(-c3ccc(Cl)s3)nc2c1 (centres undefined) | < 0.01 | < 20 | < 20 | > 10 | – | – | > 10 |
| Cc1cc(NC(=O)Cc2ccc3[nH]c(-c4ccc(Cl)s4)nc3c2)ccc1-n1ccccc1=O | < 0.01 | < 20 | < 20 | – | – | 0.18 | – |
| Cc1cc(NC(=O)Cc2ccc3[nH]c(-c4ccc(Cl)s4)nc3c2)ccc1N1CCOCC1=O | < 0.01 | < 20 | < 20 | – | – | – | – |
| N=C(N)c1cccc(N[C@H](C(=O)Nc2ccc(N3CCCCC3=O)cc2)c2ccccc2)c1 | < 0.01 | < 20 | < 20 | – | – | 0.015 | – |
| O=C(Cc1ccc2[nH]c(-c3ccc(Br)s3)nc2c1)Nc1ccc(-n2ccccc2=O)cc1 | < 0.01 | < 20 | < 20 | > 10 | – | 0.063 | > 10 |
| Cc1cc(NC(=O)Cc2ccc3[nH]c(-c4ccc(Br)s4)nc3c2)ccc1N1CCOCC1=O | < 0.01 | < 20 | < 20 | – | – | 0.041 | – |
